PubChem BioAssay (NCI)
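How tested: cells in 96-well plates exposed to compound for 48 hours at five concentrations. Here, GI50 denotes the concentration required for 50% inhibition of growth. At the TGI there is no net growth.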

Columns and labels:
Experiment in all cases: growth of human tumour cells (NCI), 48 h
U251 CNS = tested on: U251 CNS
MDA-MB-231 breast = tested on: MDA-MB-231 breast
786-0 renal = tested on: 786-0 renal
SF-295 CNS = tested on: SF-295 CNS
SK-MEL-5 melanoma = tested on: SK-MEL-5 melanoma
MOLT-4 leukemia = tested on: MOLT-4 leukemia
LOX IMVI melanoma = tested on: LOX IMVI melanoma
SR leukemia = tested on: SR leukemia
MALME-3M melanoma = tested on: MALME-3M melanoma
NCI-H226 lung = tested on: NCI-H226 lung
HL-60(TB) leukemia = tested on: HL-60(TB) leukemia
SNB-19 CNS = tested on: SNB-19 CNS
BT-549 breast = tested on: BT-549 breast
M14 melanoma = tested on: M14 melanoma
CAKI-1 renal = tested on: CAKI-1 renal
OVCAR-5 ovarian = tested on: OVCAR-5 ovarian
OVCAR-3 ovarian = tested on: OVCAR-3 ovarian
NCI-H522 lung = tested on: NCI-H522 lung
HCT-15 colon = tested on: HCT-15 colon
HOP-92 NSCLC = tested on: HOP-92 NSCLC
SF-268 CNS = tested on: SF-268 CNS
MDA-MB-435 = tested on: MDA-MB-435
KM12 colon = tested on: KM12 colon
CCRF-CEM leukemia = tested on: CCRF-CEM leukemia
SK-OV-3 ovarian = tested on: SK-OV-3 ovarian
NCI-H460 lung = tested on: NCI-H460 lung
RXF 393 renal = tested on: RXF 393 renal
ACHN renal = tested on: ACHN renal
COLO 205 colon = tested on: COLO 205 colon
A498 renal = tested on: A498 renal
SK-MEL-28 melanoma = tested on: SK-MEL-28 melanoma
HCT-116 colon = tested on: HCT-116 colon
T-47D breast = tested on: T-47D breast
SW-620 colon = tested on: SW-620 colon
EKVX NSCLC = tested on: EKVX NSCLC
NCI-H23 lung = tested on: NCI-H23 lung
HCC-2998 colon = tested on: HCC-2998 colon
NCI/ADR-RES ovarian = tested on: NCI/ADR-RES ovarian
OVCAR-4 ovarian = tested on: OVCAR-4 ovarian
HT29 colon = tested on: HT29 colon
SNB-75 CNS = tested on: SNB-75 CNS
DU-145 prostate = tested on: DU-145 prostate
UACC-257 melanoma = tested on: UACC-257 melanoma
SK-MEL-2 melanoma = tested on: SK-MEL-2 melanoma
TK-10 renal = tested on: TK-10 renal
A549 NSCLC = tested on: A549 NSCLC
SF-539 CNS = tested on: SF-539 CNS
UACC-62 melanoma = tested on: UACC-62 melanoma
SN12C renal = tested on: SN12C renal
IGROV1 ovarian = tested on: IGROV1 ovarian
K-562 leukemia = tested on: K-562 leukemia
HS 578T breast = tested on: HS 578T breast
UO-31 renal = tested on: UO-31 renal
PC-3 prostate = tested on: PC-3 prostate
HOP-62 NSCLC = tested on: HOP-62 NSCLC
MCF7 breast = tested on: MCF7 breast
OVCAR-8 ovarian = tested on: OVCAR-8 ovarian

## COc1cc2nc(-c3ccc(Cl)cc3)cc(OCCCN3CCC(O)CC3)c2cc1OC
U251 CNS
  GI50: 2.81 µM
  TGI: 22.5 µM
MDA-MB-231 breast
  GI50: 0.665 µM
  TGI: 3.52 µM
786-0 renal
  GI50: 3.31 µM
  TGI: 14.9 µM
SF-295 CNS
  GI50: 1.66 µM
  TGI: 3.58 µM
SK-MEL-5 melanoma
  GI50: 1.27 µM
  TGI: 2.56 µM
MOLT-4 leukemia
  GI50: 1.8 µM
  TGI: 4.54 µM
LOX IMVI melanoma
  GI50: 0.227 µM
  TGI: 0.589 µM
SR leukemia
  GI50: 0.373 µM
  TGI: 3.42 µM
MALME-3M melanoma
  GI50: 1.89 µM
  TGI: 4.95 µM
NCI-H226 lung
  GI50: 1.39 µM
  TGI: 3.62 µM
HL-60(TB) leukemia
  GI50: 4.27 µM
  TGI: 18.7 µM
SNB-19 CNS
  GI50: 3.19 µM
  TGI: 16.9 µM
BT-549 breast
  GI50: 2.79 µM
  TGI: 13.3 µM
M14 melanoma
  GI50: 0.591 µM
  TGI: 2.21 µM
CAKI-1 renal
  GI50: 0.416 µM
  TGI: 5.24 µM
OVCAR-5 ovarian
  GI50: 1.16 µM
  TGI: 15.6 µM
OVCAR-3 ovarian
  GI50: 3.24 µM
  TGI: 28.3 µM
NCI-H522 lung
  GI50: 2.19 µM
  TGI: 5.77 µM
HCT-15 colon
  GI50: 0.763 µM
  TGI: 12.5 µM
HOP-92 NSCLC
  GI50: 1.25 µM
  TGI: 6.79 µM
SF-268 CNS
  GI50: 3.36 µM
  TGI: 19.6 µM
MDA-MB-435
  GI50: 2.05 µM
  TGI: 5.2 µM
KM12 colon
  GI50: 3.13 µM
  TGI: 13.6 µM
CCRF-CEM leukemia
  GI50: 2.65 µM
  TGI: 10.4 µM
SK-OV-3 ovarian
  GI50: 3.17 µM
  TGI: 21.8 µM
NCI-H460 lung
  GI50: 0.955 µM
  TGI: 14 µM
RXF 393 renal
  GI50: 1.22 µM
  TGI: 4.07 µM
ACHN renal
  GI50: 2.43 µM
  TGI: 10.4 µM
COLO 205 colon
  GI50: 0.532 µM
  TGI: 4.11 µM
A498 renal
  GI50: 1.53 µM
  TGI: 3.83 µM
SK-MEL-28 melanoma
  GI50: 1.49 µM
  TGI: 3.28 µM
HCT-116 colon
  GI50: 1.44 µM
  TGI: 11.3 µM
T-47D breast
  GI50: 2.26 µM
  TGI: 12 µM
SW-620 colon
  GI50: 3.05 µM
  TGI: 13 µM
EKVX NSCLC
  GI50: 1.33 µM
  TGI: 12.9 µM
NCI-H23 lung
  GI50: 2.83 µM
  TGI: 15 µM
HCC-2998 colon
  GI50: 1.95 µM
  TGI: 5.93 µM
NCI/ADR-RES ovarian
  GI50: 0.925 µM
  TGI: 14.8 µM
OVCAR-4 ovarian
  GI50: 4.34 µM
  TGI: > 100 µM
HT29 colon
  GI50: 0.7 µM
  TGI: 3.81 µM
SNB-75 CNS
  GI50: 1.76 µM
  TGI: 5.43 µM
DU-145 prostate
  GI50: 2.78 µM
  TGI: 25.9 µM
UACC-257 melanoma
  GI50: 2.06 µM
  TGI: 4.56 µM
SK-MEL-2 melanoma
  GI50: 2.07 µM
  TGI: 5.05 µM
TK-10 renal
  GI50: 2.14 µM
  TGI: 6.75 µM
A549 NSCLC
  GI50: 2.2 µM
  TGI: 14.8 µM
SF-539 CNS
  GI50: 2.28 µM
  TGI: 6.78 µM
UACC-62 melanoma
  GI50: 1.9 µM
  TGI: 4.04 µM
SN12C renal
  GI50: 1.26 µM
  TGI: 22.1 µM
IGROV1 ovarian
  GI50: 0.923 µM
  TGI: 14.9 µM
K-562 leukemia
  GI50: 1.63 µM
  TGI: 6.75 µM
HS 578T breast
  GI50: 1.91 µM
  TGI: 6.65 µM
UO-31 renal
  GI50: 1.72 µM
  TGI: 5.97 µM
PC-3 prostate
  GI50: 2.02 µM
  TGI: 12.7 µM
HOP-62 NSCLC
  GI50: 1.98 µM
  TGI: 10.4 µM
MCF7 breast
  GI50: 1.6 µM
  TGI: 3.79 µM
OVCAR-8 ovarian
  GI50: 2 µM
  TGI: 20.7 µM
